Measurements taken from patent US9233138B2, “Compositions for promoting HIV-1 virolysis and methods using same” (Drexel University, priority 2013, dated 2016).
Entries after “also recorded” stand apart in the source; their conditions may differ. Where two headings read alike, the source gives them in different places.

Assays:
[1] = tested on: HIV-1 BaL pseudotyped virus; format: cell-based; conditions: for IC50: read-out: IC50, inhibition of HIV-1 BaL viral entry
[2] = tested on: HIV-1 BaL pseudotyped virus
VSV pseudotyped virus [3] = format: cell-based, Vesicular Stomatitis Virus
VSV pseudotyped virus [4] = tested on: VSV pseudotyped virus; set-up: species or system Vesicular Stomatitis Virus
[5] = tested on: fully infectious HIV-1 BaL; assay: Virolysis assay, p24 leakage ELISA, fully infectious virus; conditions: FIG. 5; read-out: IC50 for p24 leakage from fully infectious HIV-1 BaL
HOS.T4.R5 cells [6] = tested on: HOS.T4.R5 cells
HIV-1 BaL pseudovirus [7] = conditions: 100 nM, 10 to 30 min at 37° C., compared with PBS treated virus
Procedure: The compounds were incubated with the HIV-1 BaL pseudovirus for 30 min at 37° C. before fixing the virions with 0.1% paraformaldehyde and loaded onto a holey carbon 200 mesh grid for TEM analysis. The grids were stained with 1% uranyl acetate and loaded onto a JEM 2100 microscope system (JEOL, Japan) operated at 120 kV. Energy-dispersive X-ray (EDX) spectroscopy was conducted on the sample (blue) and the empty mesh (red) in order to confirm assignment of virion particles.
Transmission electron microscopy (TEM) analysis was conducted to assess the morphology of untreated and D4- and D8-treated virions. Pseudotyped HIV-1 BaL was treated with D4 or D8 at 100 nM from 10 to 30 min at 37° C. The samples were then spun for 2 hours at 16,000 rpm in an ultracentrifuge (Eppendorf) at 4° C. The residual virions were fixed using 0.1% paraformaldehyde for 15 min at 4° C. The paraformaldehyde was filtered using a 100 kDa filter (Millipore), and the virions were resuspended in deionized water. The samples were then loaded onto a lacey carbon 200 mesh grid (Pacific Grid Tech), and the grid was then negatively stained using 2% uranyl acetate. Once the grid was dried, the samples were loaded onto a JEM 2100 microscope system (JEOL, Japan) operated at 120 kV. The virus images and the background mesh were evaluated by energy-dispersive X-ray spectroscopy (EDX) in order to confirm identification of virions. […]

HIV-1 group M clades = conditions: read-out: IC50, antiviral activity against all HIV-1 group M clades; cited from earlier work
Env / gp120 = conditions: cited from earlier work
A-MLV pseudotyped virus = format: cell-based, Amphotropic Murine Leukemia Virus
HIV-1 BaL pseudovirus [8] = conditions: D4 and D8 50 nM; competitor serial dilution from 0.5 μM
HOS.T4.R5 cells [9] = assay: Cytotoxicity assay with WST-1 reagent; set-up: dose or concentration left out as unconfirmed; conditions: 24 hours post-exposure, FIG. 3

(G4S)4-MPER [linker(4)-MPER, reference compound]
virus inactivation accompanying p24 leakage [1]: not associated with equivalent virus inactivation
p24 leakage ([2]; non-His-tagged peptide, FIG. 13C): Significant p24 leakage

D4: fusion of CVN and MPER with (Gly4Ser)4-His6 linker: SEQ ID NO:1-(SEQ ID NO:6)4-SEQ ID NO:5-SEQ ID NO:11
IC50 [1]: 0.58 ± 0.069 nM
viral entry inhibition, VSV envelope pseudovirus (VSV pseudotyped virus [3]): no significant dose-dependent viral entry inhibition
IC50 ([2]; HIV-1 BaL pseudovirus, 30 min incubation, relative to 1% Triton X-100 lysed virus, FIG. 4A, read-out: IC50 for viral leakage (p24 release)): 14.2 ± 0.8 nM
p24 leakage, VSV-envelope control virus (VSV pseudotyped virus [4]): no leakage
IC50 [5]: 200 ± 22 nM
cytotoxicity (cell viability, WST-1) (HOS.T4.R5 cells [6]): No statistically significant differences
virion morphology after treatment (TEM) (HIV-1 BaL pseudovirus [7]): significant morphological differences relative to intact virions

microvirin [MVN, reference compound]
antiviral property / infectivity inhibition of MVN-based DAVEI [1]: only exhibited antiviral property
virolytic property of MVN-based DAVEI ([2]; FIG. 10C): only exhibited antiviral property
IC50 (HIV-1 group M clades): 2 to 167 nM
causes gp120 shedding? (Env / gp120): No
conformationally activates Env? (Env / gp120): No

B1: cyanovirin-N (protein)
chain: LGKFSQTCYNSAIQGSVLTSTCERTNGGYNTSSIDLNSVIENVDGSLKWQPSNFIETCRNTQLAGSSELAAECKTRAQQFVSTKINLDDHIANIDGTLKYE
modifications: cyanovirin-N fragment
IC50 [1]: 0.16 ± 0.031 nM
viral entry inhibition, VSV envelope pseudovirus (VSV pseudotyped virus [3]): no significant dose-dependent viral entry inhibition
viral entry inhibition, A-MLV envelope pseudovirus (A-MLV pseudotyped virus): no significant dose-dependent viral entry inhibition
leakage of intraviral p24 ([2]; at concentrations up to at least 10 μM, FIG. 4A): unable to induce the leakage of intraviral p24
competition of the virolytic activity of both D4 and D8 (HIV-1 BaL pseudovirus [8]): observed in a dose-dependent fashion
causes gp120 shedding? (Env / gp120): No
conformationally activates Env? (Env / gp120): No
cytotoxicity (cell viability, WST-1) (HOS.T4.R5 cells [9]): no significant cytotoxicity; also recorded: No statistically significant differences
